Experiments:
Assay type in all cases: functional
MDA-MB-468 = test: Cytotoxicity against human MDA-MB-468 cells assessed as cell growth at 10^-7 M after 48 hrs by SRB assay; details: MDA-MB-468, 48 h, read-out: Activity
NCI-H226 [1] = test: Cytotoxicity against human NCI-H226 cells assessed as cell growth at 10^-7 M after 48 hrs by SRB assay; details: NCI-H226, 48 h, read-out: Activity
KM12 [2] = test: Cytotoxicity against human KM12 cells assessed as cell growth at 10^-4 M after 48 hrs by SRB assay; details: KM12, 48 h, read-out: Activity
HOP-92 = test: Cytotoxicity against human HOP92 cells after 48 hrs by SRB assay; details: HOP-92, 48 h
PC-3 = test: Cytotoxicity against human PC3 cells assessed as cell growth at 10^-8 M after 48 hrs by SRB assay; details: PC-3, 48 h, read-out: Activity
RXF 393 = test: Cytotoxicity against human RXF393 cells assessed as cell growth at 10^-6 M after 48 hrs by SRB assay; details: RXF 393, 48 h, read-out: Activity
RPMI-8226 [3] = test: Cytotoxicity against human RPMI8226 cells assessed as cell growth at 10^-8 M after 48 hrs by SRB assay; details: RPMI-8226, 48 h, read-out: Activity
HCT-116 [4] = test: Cytotoxicity against human HCT116 cells assessed as cell growth at 10^-6 M after 48 hrs by SRB assay; details: HCT-116, 48 h, read-out: Activity
KM12 [5] = test: Cytotoxicity against human KM12 cells assessed as cell growth at 10^-8 M after 48 hrs by SRB assay; details: KM12, 48 h, read-out: Activity
BT-549 = test: Cytotoxicity against human BT549 cells assessed as cell growth at 10^-7 M after 48 hrs by SRB assay; details: BT-549, 48 h, read-out: Activity
ACHN [6] = test: Cytotoxicity against human ACHN cells assessed as cell growth at 10^-7 M after 48 hrs by SRB assay; details: read-out: Activity
RPMI-8226 [7] = test: Cytotoxicity against human RPMI8226 cells assessed as cell growth at 10^-4 M after 48 hrs by SRB assay; details: RPMI-8226, 48 h, read-out: Activity
NCI-H226 [8] = test: Cytotoxicity against human NCI-H226 cells after 48 hrs by SRB assay; details: NCI-H226, 48 h
ACHN [9] = test: Cytotoxicity against human ACHN cells assessed as cell growth at 10^-4 M after 48 hrs by SRB assay; details: read-out: Activity
[10] = Cytotoxicity against human Hs578T cells assessed as cell growth at 10^-6 M after 48 hrs by SRB assay; details: Hs-578T, read-out: Activity
SK-MEL-5 = test: Cytotoxicity against human SK-MEL-5 cells after 48 hrs by SRB assay; details: SK-MEL-5, 48 h
HCT-116 [11] = test: Cytotoxicity against human HCT116 cells after 48 hrs by SRB assay; details: HCT-116, 48 h
MCF7 = test: Cytotoxicity against human MCF7 cells assessed as cell growth at 10^-6 M after 48 hrs by SRB assay; details: MCF7, 48 h, read-out: Activity
[12] = Cytotoxicity against human Hs578T cells assessed as cell growth at 10^-4 M after 48 hrs by SRB assay; details: Hs-578T, read-out: Activity
SNB-19 = test: Cytotoxicity against human SNB19 cells assessed as cell growth at 10^-4 M after 48 hrs by SRB assay; details: SNB-19, 48 h, read-out: Activity
[13] = Cytotoxicity against human NCI-ADR-RES cells assessed as cell growth at 10^-8 M after 48 hrs by SRB assay; details: read-out: Activity
MDA-MB-435 = test: Cytotoxicity against human MDA-MB-435 cells assessed as cell growth at 10^-8 M after 48 hrs by SRB assay; details: MDA-MB-435, 48 h, read-out: Activity
HT-29 [14] = test: Cytotoxicity against human HT-29 cells assessed as cell growth at 10^-6 M after 48 hrs by SRB assay; details: HT-29, 48 h, read-out: Activity
SK-MEL-28 = test: Cytotoxicity against human SK-MEL-28 cells after 48 hrs by SRB assay; details: SK-MEL-28, 48 h
CCRF-CEM = test: Cytotoxicity against human CCRF-CEM cells assessed as cell growth at 10^-6 M after 48 hrs by SRB assay; details: read-out: Activity
HOP-62 = test: Cytotoxicity against human HOP62 cells assessed as cell growth at 10^-7 M after 48 hrs by SRB assay; details: HOP-62, 48 h, read-out: Activity
NCI-H522 [15] = test: Cytotoxicity against human NCI-H522 cells assessed as cell growth at 10^-4 M after 48 hrs by SRB assay; details: NCI-H522, 48 h, read-out: Activity
M14 = test: Cytotoxicity against human M14 cells assessed as cell growth at 10^-4 M after 48 hrs by SRB assay; details: M14, 48 h, read-out: Activity
OVCAR-3 [16] = test: Cytotoxicity against human OVCAR3 cells after 48 hrs by SRB assay; details: OVCAR-3, 48 h
[17] = Cytotoxicity against human OVCAR4 cells assessed as cell growth at 10^-7 M after 48 hrs by SRB assay; details: OVCAR-4, 48 h, read-out: Activity
786-0 = test: Cytotoxicity against human 786-0 cells assessed as cell growth at 10^-4 M after 48 hrs by SRB assay; details: 786-0, 48 h, read-out: Activity
HT-29 [18] = test: Cytotoxicity against human HT-29 cells after 48 hrs by SRB assay; details: HT-29, 48 h
NCI-H522 [19] = test: Cytotoxicity against human NCI-H522 cells assessed as cell growth at 10^-8 M after 48 hrs by SRB assay; details: NCI-H522, 48 h, read-out: Activity
OVCAR-3 [20] = test: Cytotoxicity against human OVCAR3 cells assessed as cell growth at 10^-8 M after 48 hrs by SRB assay; details: OVCAR-3, 48 h, read-out: Activity
MDA-MB-231 = test: Cytotoxicity against human MDA-MB-231 cells after 48 hrs by SRB assay; details: MDA-MB-231, 48 h
U-251 [21] = test: Cytotoxicity against human U251 cells assessed as cell growth at 10^-8 M after 48 hrs by SRB assay; details: U-251, 48 h, read-out: Activity
U-251 [22] = test: Cytotoxicity against human U251 cells assessed as cell growth at 10^-6 M after 48 hrs by SRB assay; details: U-251, 48 h, read-out: Activity
OVCAR-8 = test: Cytotoxicity against human OVCAR8 cells after 48 hrs by SRB assay; details: OVCAR-8, 48 h
HCC 2998 = test: Cytotoxicity against human HCC2998 cells assessed as cell growth at 10^-4 M after 48 hrs by SRB assay; details: HCC 2998, 48 h, read-out: Activity

## C=CCn1c(C)nc2ccc(Nc3nc(Nc4ccc5nc(C)n(CC=C)c5c4)c4ccccc4n3)cc21
MDA-MB-468
  growth at 0.1 µM: 92%
NCI-H226 [1]
  growth at 0.1 µM: 86%
KM12 [2]
  growth at 100 µM: -31%
HOP-92
  GI50: 1370 nM
  TGI: 2930 nM
PC-3
  growth at 0.01 µM: 93%
RXF 393
  growth at 1 µM: 99%
RPMI-8226 [3]
  growth at 0.01 µM: 99%
HCT-116 [4]
  growth at 1 µM: 74%
KM12 [5]
  growth at 0.01 µM: 96%
BT-549
  growth at 0.1 µM: 95%
ACHN [6]
  growth at 0.1 µM: 92%
RPMI-8226 [7]
  growth at 100 µM: 5%
NCI-H226 [8]
  GI50: 1750 nM
  TGI: 3.31 µM
ACHN [9]
  growth at 100 µM: -69%
[10]
  growth at 1 µM: 81%
SK-MEL-5
  GI50: 1650 nM
  TGI: 3.03 µM
HCT-116 [11]
  GI50: 1370 nM
MCF7
  growth at 1 µM: 85%
[12]
  growth at 100 µM: -15%
SNB-19
  growth at 100 µM: -34%
[13]
  growth at 0.01 µM: 99%
MDA-MB-435
  growth at 0.01 µM: 100%
HT-29 [14]
  growth at 1 µM: 101%
SK-MEL-28
  GI50: 1840 nM
  TGI: 3.28 µM
CCRF-CEM
  growth at 1 µM: 82%
HOP-62
  growth at 0.1 µM: 96%
NCI-H522 [15]
  growth at 100 µM: -15%
M14
  growth at 100 µM: -7%
OVCAR-3 [16]
  GI50: 1700 nM
  TGI: 3.08 µM
[17]
  growth at 0.1 µM: 95%
786-0
  growth at 100 µM: -18%
HT-29 [18]
  GI50: 1850 nM
  TGI: 3.39 µM
NCI-H522 [19]
  growth at 0.01 µM: 97%
OVCAR-3 [20]
  growth at 0.01 µM: 99%
MDA-MB-231
  GI50: 1340 nM
  LC50: 5.12 µM
  TGI: 2620 nM
U-251 [21]
  growth at 0.01 µM: 96%
U-251 [22]
  growth at 1 µM: 89%
OVCAR-8
  GI50: 1560 nM
  TGI: 3.25 µM
HCC 2998
  growth at 100 µM: -53%
